Data set [1] in a line: Single 1.0 mg dose with combined oral contraceptive in premenopausal women (PK interaction, safety). Here is the method:
The study consisted of a 49-day screening period and four consecutive 28-day (menstrual) cycles.
For the combined oral contraceptive, 30 μg of ethinyl estradiol and 0.15 mg of levonorgestrel (Seasonique®) was used. Seasonique® is an oral contraceptive designed and approved for daily administration. The 84 blue-green tablets (30-μg ethinyl estradiol and 0.15 mg levonorgestrel) are packaged with seven yellow tablets containing 10-μg ethinyl estradiol to eliminate the hormone free interval.

The target of data set [2] is T1, aromatase (Homo sapiens, UniProt P11511).
T1 construct: high levels of aromatase in the adipose tissue; from tissue; host or cells: in vivo, human subjects (aromatase of adipose tissue)
T1 sequence (P11511 1-503): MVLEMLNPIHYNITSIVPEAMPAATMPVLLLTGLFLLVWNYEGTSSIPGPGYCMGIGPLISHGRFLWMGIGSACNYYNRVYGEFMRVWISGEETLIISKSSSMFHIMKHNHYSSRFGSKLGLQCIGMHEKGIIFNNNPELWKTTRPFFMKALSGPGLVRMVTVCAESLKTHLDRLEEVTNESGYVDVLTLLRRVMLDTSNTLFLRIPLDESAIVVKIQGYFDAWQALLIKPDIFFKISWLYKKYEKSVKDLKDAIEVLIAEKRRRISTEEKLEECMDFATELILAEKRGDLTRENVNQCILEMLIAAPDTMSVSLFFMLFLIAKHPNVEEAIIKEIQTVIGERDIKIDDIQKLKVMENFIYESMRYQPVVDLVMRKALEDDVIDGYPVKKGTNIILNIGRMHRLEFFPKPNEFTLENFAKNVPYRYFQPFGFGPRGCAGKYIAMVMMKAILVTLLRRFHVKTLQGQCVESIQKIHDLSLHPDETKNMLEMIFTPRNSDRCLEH
The note with it: microsomal fraction of human placenta; cited from earlier work.

Data set [3] has as its target T2, aromatase (Rattus norvegicus, UniProt P22443).
T2 construct: achieving medical castration in adult female rats; from tissue; host or cells: in vivo, adult female rats
T2 sequence (P22443 1-508): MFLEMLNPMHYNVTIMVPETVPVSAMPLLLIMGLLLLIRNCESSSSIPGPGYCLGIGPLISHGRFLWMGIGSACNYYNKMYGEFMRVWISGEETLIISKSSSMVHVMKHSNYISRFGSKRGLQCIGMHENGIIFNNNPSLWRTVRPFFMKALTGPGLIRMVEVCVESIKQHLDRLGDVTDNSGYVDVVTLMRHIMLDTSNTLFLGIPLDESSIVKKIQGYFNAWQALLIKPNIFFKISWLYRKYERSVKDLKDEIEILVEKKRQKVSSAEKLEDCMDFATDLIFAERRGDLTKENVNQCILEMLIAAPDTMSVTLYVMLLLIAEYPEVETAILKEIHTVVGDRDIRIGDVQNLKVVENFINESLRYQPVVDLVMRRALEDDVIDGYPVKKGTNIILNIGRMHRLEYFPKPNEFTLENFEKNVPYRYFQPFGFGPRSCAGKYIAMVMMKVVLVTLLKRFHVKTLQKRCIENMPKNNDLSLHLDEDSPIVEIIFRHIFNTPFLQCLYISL
The note with it: once weekly administration, adult female rats; cited from earlier work.

A short description of data set [4]: Tissue (fat) biopsy concentration versus plasma. The note with it: human fat biopsies, read-out: concentration in tissue (fat) relative to plasma/blood. It is filed as in vivo.
Data set [5] has as its system estrone, estrone sulfate and estradiol. In words: Single ascending dose study in women: PD (estrogen suppression). Format: in vivo, human. From the text: (§1) A minimal toxic dose (MTD) was not reached. […] Table 3 presents the PK parameters based on analysis of the concentration-time profile obtained from this study.
Data set [6] in a line: Single ascending dose study in pre- and post-menopausal women: safety, tolerability and PK. It is filed as in vivo, human. The note with it: for AUC(0-tlast) Mean / Cmax Mean / T1/2 Mean / Tmax Median: po.
Excerpt: The drug concentration in plasma and/or serum samples can be determined by a number of different ways, e.g. HPLC or LC-MS/MS analyses. […]
as §1

Data set [7] in a line: Toxicologic studies in dogs: plasma exposure after single and weekly oral dosing. It is filed as in vivo. From the text:
(§2) Generally, the inter-animal variability in Cmax levels was small.

Data set [8] concerns testosterone levels. In words: Serum testosterone levels in male dogs after 1, 4 and 12 weeks of dosing. The note with it: all dose levels. Format: in vivo.
Excerpt: as §2

The target in data set [9] is T1, aromatase. In words: Low dose study in obese men with low testosterone, with PK/PD analyses of aromatase inhibition. It is filed as in vivo.
Where [10] appears, read: female, human, in vivo, 0.01 mg.
Setting [11] is: female, human, in vivo, 0.03 mg.

In brackets after ≈: the same amount, converted by molar mass. Some results are limits rather than exact numbers.

Regarding `C#C[C@]1(O)CC[C@H]2[C@@H]3CCC4=CC(=O)CC[C@@H]4[C@H]3CC[C@@]21CC` [levonorgestrel, reference compound], the “steady state pharmacokinetic profile with 1 mg CGP47645 versus placebo” value in data set [1] (Day 29, surgically sterile healthy premenopausal women, COC 30 μg ethinyl estradiol and 0.15 mg levonorgestrel) is on record as “similar”.
`N#Cc1ccc(C(F)(c2ccc(C#N)cc2)n2cncn2)cc1` [CGP47645, 4,4′-[fluoro-(1-H-1,2,4-triazol-1-yl)methylene]bisbenzonitrile]: in data set [2], the “mode of aromatase inhibition” value is “competitive inhibitor”. In [3], the “effective dose achieving medical castration” value is on record as 3 mg/kg. Also, in [4], the Kp is not above 10. The “lowest single dose at which maximal estrogen suppression was observed” value in data set [5] (post-menopausal women, chemiluminescence or radioimmunoassay) amounted to 0.1 mg. Besides, the “lowest single dose at which transient estrogen suppression was seen” value in [5] (postmenopausal women) was determined as 0.01 mg. Also, in [5] (postmenopausal women, doses of 0.1 mg and 0.3 mg), the “estrone suppression compared with letrozole” value was “at least equal to letrozole”. Besides, the “inhibition of estrone, estrone sulfate and estradiol” value in data set [5] (women, single ascending doses) is “dose-dependent inhibition”. The “safety of co-administration with continuously dosed COC” value in [1] (in vivo) is on record as “may be co-administered safely”. Further, the “pharmacokinetic parameters with COC compared with single ascending dose study without COC” value in data set [1] (in vivo, po) is “similar”. For the same compound, the inter-subject variability in [6] (female, human, in vivo) is on record as 10-30%. Moreover, the Tmax in data set [6] (female, human, in vivo, Tmax) is 0.5 to 2 h; in [6] (female, human, in vivo, median Tmax), not above 1 h. Besides, the “AUC(0-tlast) Mean” value in [6] (setting [10]) came out at 1.4 ng·h/mL; in [6] (setting [11]) it was 24.1 ng·h/mL; in [6] (female, human, in vivo, 0.1 mg), 116.2 ng·h/mL. For the same compound, the “Cmax Mean” value was determined as 0.2 ng/mL in data set [6] (setting [10]); 0.4 ng/mL in data set [6] (setting [11]); 1.7 ng/mL in data set [6] (female, human, in vivo, 0.1 mg). The “T1/2 Mean” value turned out to be 55.2 h in [6] (setting [10]); 396 h in data set [6] (setting [11]); 564 h in [6] (female, human, in vivo, 0.1 mg). The “Tmax Median” value in [6] (setting [10]) was found to be 1 h; in [6] (female, human, in vivo, 0.1 mg), 1 h; in data set [6] (female, human, in vivo, 0.3 mg), 1 h; in data set [6] (female, human, in vivo, 1 mg), 1 h; in [6] (female, human, in vivo, 3 mg), 1 h. Moreover, the “dose dependence of half-life” value in data set [6] (human, in vivo) is “directly dose dependent”. The “dose proportionality of Cmax and AUC” value in [6] (human, in vivo) is recorded as “increased in a dose-proportional manner”. Besides, the “difference in pharmacokinetics between post- and pre-menopausal women” value in [6] (in vivo) is on record as “No differences”. Moreover, the “minimal toxic dose (MTD)” value in data set [6] (single doses 0.01 mg through 20 mg, post-menopausal women) is “not reached”. The “difference in exposure (AUC and Cmax) between male and female dogs” value in [7] (dogs) is given as “no consistent difference”. Moreover, the drug accumulation result in [7] (dogs, weekly oral dosing for 4 or 22 weeks versus single dose) is “no drug accumulation”. For the same compound, the “increase in exposure (AUC and Cmax) with dose” value in [7] (male and female dogs, single and multiple doses, all dose levels) is “generally proportional to the dose increase”. Moreover, the serum testosterone levels result in [8] is recorded as “dramatically elevated testosterone levels”. Also, the “average estimated IC40 for aromatase inhibition” value in data set [9] (PK/PD analyses, plasma concentration) is 0.03 ng/mL. Moreover, in data set [9] (PK/PD analyses, plasma concentration, read-out: average estimated IC90 for aromatase inhibition), the IC90 is 0.27 ng/mL (≈ 0.89 nM). In [9] (females and males with obesity-associated hypogonadotropic hypogonadism, blood levels below IC50), the “lowest dose with effects on the aromatase-testosterone-estradiol pathway” value was 0.003 mg.

The values are drawn from patent US20190192485A1, “DOSAGE REGIMEN FOR THE TREATMENT OF ENDOMETRIOSIS” (MEREO BIOPHARMA 2 LIMITED, priority 2016, published 2019).
